Results on eight molecules are retold here after patent US8501722B2, “Methods and compositions for treating bacterial infection” (priority 2009, dated 2013).

SMILES strings stand for the structures. Where “and” joins values, the source holds several entries; their conditions need not be identical. Identical values can stand only once. Like-named read-outs stand apart in the source and are kept apart here.

Test [1] relates to SK(+)GAS. Description: GAS growth by OD600 nm of culture. It is filed as cell-based, Group A Streptococcus. The following applies: for activity at 0.1 µg/mL: read-out: GAS Growth (% control), compound conc. 0.1 μg/ml; for activity at 0.3 µg/mL: read-out: GAS Growth (% control), compound conc. 0.3 μg/ml; for activity at 2.5 µg/mL: read-out: GAS Growth (% control), compound conc. 2.5 μg/ml; for activity at 5 µg/mL: read-out: GAS Growth (% control), compound conc. 5 μg/ml; for activity at 20 µg/mL: read-out: GAS Growth (% control), compound conc. 20 μg/ml; for activity at 40 µg/mL: read-out: GAS Growth (% control), compound conc. 40 μg/ml; for activity at 70 µg/mL: read-out: GAS Growth (% control), compound conc. 70 μg/ml; for activity at 10 µg/mL: read-out: GAS Growth (% control), compound conc. 10 μg/ml; for activity at 30 µg/mL: read-out: GAS Growth (% control), compound conc. 30 μg/ml; for activity at 50 µg/mL: read-out: GAS Growth (% control), compound conc. 50 μg/ml.

In test [2] the test system is streptokinase (SK).
Procedure: SK− Ecoli and SKCtr1's dose response relationship with these compounds were then examined.
The effects of 10 hit compounds out of the 23 identified were further tested by dose response assays. […] These compounds were tested for inhibition of ska expression by measuring SK activity in supernatants of GAS exposed to the test compound or control vehicle alone (DMSO). SK(+)GAS were cultured with hit compounds at a dose range of 10 nM to 100 μM at 37° C. for 16-20 hours. Supernatants of SK(+)GAS cultures were measured for SK activity using chromogenic substrate 2403 (Diapharma group Inc., West Chester, Ohio), according to the manufacturer's instruction and simultaneously monitored for nonspecific effects on GAS growth by measuring OD600 nm.
The positive compounds identified in dose response assays are subjected to SK assay to identify compounds inhibiting SK expression in SK(+)GAS. Briefly, SK(+)GAS is grown at the presence of hit compounds at a dose range determined by dose response assays within which SK(−) GAS growth is inhibited less than 10% while SKKanGAS growth is inhibited more than 50% under 20 μg/ml kanamycin.

On to `C=CCn1c(SCc2ccccn2)nc2c(c1=O)C(C)(C)Cc1ccccc1-2` [CCG-203039, 3-Allyl-5,5-dimethyl-2-(pyridin-2-ylmethylthio)-5,6-dihydrobenzo[h]quinazolin-4(3H)-one], for which, in test [1] (Streptococcus), the activity at 0.1 µg/mL came to 100%. Also, the activity at 0.3 µg/mL in test [1] (Streptococcus) stood at 100%. Moreover, the activity at 2.5 µg/mL in test [1] (Streptococcus) amounted to 104%. Further, in test [1] (Streptococcus), the activity at 5 µg/mL is 100%. The activity at 20 µg/mL in test [1] (Streptococcus) was determined as 104%. For the same molecule, the activity at 40 µg/mL in test [1] (Streptococcus) amounted to 115%. Further, in test [1] (Streptococcus), the activity at 70 µg/mL stood at 135%. The “SK Expression (% control)” value in test [2] (compound conc. 0.1 μg/ml) stood at 94 % control; in test [2] (compound conc. 0.3 μg/ml) it was 95 % control; in test [2] (compound conc. 1.0 μg/ml), 93 % control; in test [2] (compound conc. 3 μg/ml), 58 % control; in test [2] (compound conc. 10 μg/ml), 49 % control; in test [2] (compound conc. 30 μg/ml) it was 35 % control. Moreover, the “SK Expression (% control)” value in test [2] (compound conc. 60 μg/ml) turned out to be 27 % control.
Consider `C=CCn1c(SCCO)nc2c(c1=O)C(C)(C)Cc1ccccc1-2` [CCG-203041, 3-Allyl-2-(2-hydroxyethylthio)-5,5-dimethyl-5,6-dihydrobenzo[h]quinazolin-4(3H)-one], for which, in test [1] (Streptococcus), the activity at 0.1 µg/mL is 100%, the activity at 0.3 µg/mL was determined as 102%, the activity at 2.5 µg/mL was found to be 104% and the activity at 5 µg/mL stood at 106%. Further, in test [1] (Streptococcus), the activity at 20 µg/mL was found to be 107%, the activity at 40 µg/mL was 60% and the activity at 70 µg/mL worked out at 50%. In addition, the “SK Expression (% control)” value in test [2] (compound conc. 0.1 μg/ml) was 93 % control. Further, the “SK Expression (% control)” value in test [2] (compound conc. 0.3 μg/ml) is 90 % control. Further, in test [2] (compound conc. 1.0 μg/ml), the “SK Expression (% control)” value is given as 90 % control. Besides, the “SK Expression (% control)” value in test [2] (compound conc. 3 μg/ml) is 87 % control. Also, in test [2] (compound conc. 10 μg/ml), the “SK Expression (% control)” value is 57 % control. Further, the “SK Expression (% control)” value in test [2] (compound conc. 30 μg/ml) is recorded as 28 % control. In test [2] (compound conc. 60 μg/ml), the “SK Expression (% control)” value was 12 % control.
With `C=CCn1c(NCC)nc2c(c1=O)C1(CCCCC1)Cc1ccccc1-2` [CCG-203043, 3-allyl-2-(ethylamino)-3H-spiro[benzo[h]quinazoline-5,1′-cyclohexan]-4(6H)-one], in test [1] (Streptococcus), the activity at 0.1 µg/mL amounted to 101%, the activity at 0.3 µg/mL came out at 104%, the activity at 2.5 µg/mL turned out to be 106% and the activity at 5 µg/mL was 116%. In test [1] (Streptococcus), the activity at 20 µg/mL worked out at 113%, the activity at 40 µg/mL worked out at 115% and the activity at 70 µg/mL was 124%. The “SK Expression (% control)” value in test [2] (compound conc. 0.1 μg/ml) is given as 96 % control. For the same molecule, the “SK Expression (% control)” value in test [2] (compound conc. 0.3 μg/ml) stood at 96 % control. For the same molecule, the “SK Expression (% control)” value in test [2] (compound conc. 1.0 μg/ml) was determined as 94 % control. Besides, the “SK Expression (% control)” value in test [2] (compound conc. 3 μg/ml) is recorded as 62 % control. Besides, in test [2] (compound conc. 10 μg/ml), the “SK Expression (% control)” value is given as 41 % control. The “SK Expression (% control)” value in test [2] (compound conc. 30 μg/ml) was found to be 32 % control. Also, in test [2] (compound conc. 60 μg/ml), the “SK Expression (% control)” value worked out at 24 % control.
On to `C=CCn1c(SCCOC)nc2c(c1=O)C(C)(C)c1ccccc1-2` [CCG-203572, 3-allyl-2-(2-methoxyethylthio)-5,5-dimethyl-3H-indeno[1,2-d]pyrimidin-4(5H)-one], for which, in test [1] (Streptococcus), the activity at 0.1 µg/mL amounted to 101%, the activity at 0.3 µg/mL is 101%, the activity at 2.5 µg/mL was 101% and the activity at 5 µg/mL was 97%. Moreover, in test [1] (Streptococcus), the activity at 10 µg/mL is 97%, the activity at 20 µg/mL amounted to 96%, the activity at 40 µg/mL was 87% and the activity at 70 µg/mL is 96%. Further, the “GAS Growth (% control)” value in test [1] (compound conc. 0.3 μg/ml) was found to be 101 % control. In addition, in test [2] (compound conc. 0.1 μg/ml), the “SK Expression (% control)” value was 100 % control and 128 % control. For the same molecule, in test [2] (compound conc. 0.3 μg/ml), the “SK Expression (% control)” value is 101 % control and 129 % control. Further, the “SK Expression (% control)” value in test [2] (compound conc. 1.0 μg/ml) was 102 % control and 134 % control. Further, in test [2] (compound conc. 3 μg/ml), the “SK Expression (% control)” value is 102 % control and 75 % control. In test [2] (compound conc. 5 μg/ml), the “SK Expression (% control)” value is 21 % control. Further, the “SK Expression (% control)” value in test [2] (compound conc. 20 μg/ml) is listed as 10 % control. In addition, the “SK Expression (% control)” value in test [2] (compound conc. 40 μg/ml) is recorded as 9 % control.
As to `C=CCn1c(SCCOC)nc2c(c1=O)CC(C)c1ccccc1-2` (centres unmarked) [CCG-203574, 3-allyl-2-(2-methoxyethylthio)-6-methyl-5,6-dihydrobenzo[h]quinazolin-4(3H)-one], the activity at 5 µg/mL in test [1] (Streptococcus) is 102%. Further, the activity at 10 µg/mL in test [1] (Streptococcus) was 95%. For the same molecule, in test [1] (Streptococcus), the activity at 20 µg/mL is 85%. Further, in test [1] (Streptococcus), the activity at 40 µg/mL was found to be 68%. In addition, the “SK Expression (% control)” value in test [2] (compound conc. 5 μg/ml) amounted to 80 % control; in test [2] (compound conc. 10 μg/ml) it was 10 % control; in test [2] (compound conc. 20 μg/ml), 6 % control; in test [2] (compound conc. 40 μg/ml), 6 % control.
For `C=CCn1c(SCCOC)nc2c(c1=O)C(C)(C)Cc1cc(OC)ccc1-2` [CCG-203576, 3-allyl-8-methoxy-2-(2-methoxyethylthio)-5,5-dimethyl-5,6-dihydrobenzo[h]quinazolin-4(3H)-one], in test [1] (Streptococcus), the activity at 0.1 µg/mL is 102%, the activity at 0.3 µg/mL came out at 101%, the activity at 2.5 µg/mL stood at 100% and the activity at 5 µg/mL was 99%. In test [1] (Streptococcus), the activity at 10 µg/mL is 98%, the activity at 20 µg/mL turned out to be 99%, the activity at 40 µg/mL is 101% and the activity at 70 µg/mL was determined as 105%. Moreover, in test [1] (compound conc. 2.5 μg/ml), the “GAS Growth (% control)” value is listed as 100 % control. The “SK Expression (% control)” value in test [2] (compound conc. 0.1 μg/ml) is 99 % control and 93 % control. For the same molecule, in test [2] (compound conc. 0.3 μg/ml), the “SK Expression (% control)” value is 99 % control and 98 % control. In addition, the “SK Expression (% control)” value in test [2] (compound conc. 1.0 μg/ml) was 99 % control and 89 % control. Besides, the “SK Expression (% control)” value in test [2] (compound conc. 3 μg/ml) was 100 % control and 61 % control. Besides, in test [2] (compound conc. 5 μg/ml), the “SK Expression (% control)” value was determined as 30 % control. Also, the “SK Expression (% control)” value in test [2] (compound conc. 20 μg/ml) turned out to be 19 % control. In test [2] (compound conc. 40 μg/ml), the “SK Expression (% control)” value came to 11 % control.
Regarding `C=CCn1c(SCc2ccccc2)nc2c(c1=O)C(C)(C)Cc1ccccc1-2` [compound 25203], the activity at 2.5 µg/mL in test [1] (Streptococcus) was determined as 89%. The activity at 10 µg/mL in test [1] (Streptococcus) came to 92%. In addition, the activity at 20 µg/mL in test [1] (Streptococcus) was found to be 100%. In test [1] (Streptococcus), the activity at 30 µg/mL was found to be 110%. The activity at 40 µg/mL in test [1] (Streptococcus) came to 118%. Further, in test [1] (Streptococcus), the activity at 50 µg/mL turned out to be 125%. In test [1] (Streptococcus, read-out: GAS Growth (% control), compound conc. 60 μg/ml), the activity at 60 µg/mL came to 132%. For the same molecule, the activity at 70 µg/mL in test [1] (Streptococcus) stood at 143%. In addition, the “SK Expression (% control)” value in test [2] (compound conc. 2.5 μg/ml) was 110 % control; in test [2] (compound conc. 10 μg/ml), 96 % control; in test [2] (compound conc. 20 μg/ml) it was 84 % control; in test [2] (compound conc. 30 μg/ml), 70 % control; in test [2] (compound conc. 40 μg/ml), 63 % control; in test [2] (compound conc. 50 μg/ml), 58 % control. Besides, the results for the “SK Expression (% control)” value in test [2] (compound conc. 60 μg/ml) and in test [2] (compound conc. 70 μg/ml) were 52 % control and 60 % control, respectively.
Take `C=CCn1c(SCc2ccccc2)nc2c(c1=O)C1(CCCCC1)Cc1ccccc1-2` [compound 575097]: in test [1] (Streptococcus), the activity at 10 µg/mL turned out to be 89%. Moreover, in test [1] (Streptococcus), the activity at 20 µg/mL was 88%. In addition, the activity at 30 µg/mL in test [1] (Streptococcus) was 88%. Besides, the activity at 40 µg/mL in test [1] (Streptococcus) was 86%. Further, in test [1] (Streptococcus), the activity at 50 µg/mL was 86%. Further, the “SK Expression (% control)” value is 92 % control and 88 % control in test [2] (compound conc. 10 μg/ml); 82 % control and 79 % control in test [2] (compound conc. 20 μg/ml); 79 % control and 77 % control in test [2] (compound conc. 30 μg/ml); 72 % control and 74 % control in test [2] (compound conc. 40 μg/ml); 70 % control and 67 % control in test [2] (compound conc. 50 μg/ml); 63 % control in test [2] (compound conc. 60 μg/ml). Further, the “SK Expression (% control)” value in test [2] (compound conc. 70 μg/ml) is given as 65 % control.
